The source made the active and inactive calls. The rule behind the calls is not given here.

The test system of data set [1] is HeLa. The data set is described as follows: Induction of autophagy mediated Halotag-fused EGFP (unknown origin) degradation expressed in human HeLa cells assessed as reduction in EGFP-HT substrate level at 0.1 to 10 uM measured after 24 hrs by fluorescence microscopic analysis. Format: cell-based. To be noted: dose 0.1-10 µM.
In data set [2] the test system is HeLa. The data set is described as follows: Induction of autophagy mediated Halotag-fused EGFP (unknown origin) degradation expressed in human HeLa cells assessed as reduction in EGFP-HT substrate level at 0.01 to 1 uM measured after 24 hrs by fluorescence microscopic analysis. Format: cell-based. To be noted: dose 0.01-1 µM.
Data set [3] concerns HeLa. The data set is described as follows: Induction of autophagy mediated Halotag-fused EGFP (unknown origin) degradation expressed in human HeLa cells assessed as reduction in EGFP-HT substrate level measured after 24 hrs by fluorescence microscopic analysis. It counts as cell-based. To be noted: dose 1-10 µM.
Data set [4] relates to HeLa. Put plainly: Induction of autophagy mediated Halotag-fused EGFP (unknown origin) degradation expressed in human HeLa cells assessed as reduction in EGFP-HT substrate level at 1 to 10 uM measured after 12 to 24 hrs by fluorescence microscopic analysis. Format: cell-based. To be noted: dose 1-10 µM, time 12-24 hrs.
Data set [5] relates to MEF. Put plainly: Induction of autophagy mediated Halotag-fused EGFP (unknown origin) degradation transiently expressed in Atg5+/+ MEF cells assessed as reduction in EGFP-HT substrate level at 1 uM measured after 24 hrs by fluorescence microscopic analysis. It counts as cell-based.
The test system of data set [6] is HeLa. Put plainly: Induction of autophagy mediated Halotag-fused EGFP (unknown origin) degradation expressed in human HeLa cells assessed as reduction in EGFP-HT substrate level at 1 uM incubated for 24 hrs in presence of bafilomycin Al by fluorescence microscopic analysis. Format: cell-based.
Data set [7] has as its system HeLa. Put plainly: Induction of autophagy mediated Halotag-fused EGFP (unknown origin) degradation expressed in human HeLa cells assessed as reduction in EGFP-HT substrate level at <1 uM measured after 24 hrs by fluorescence microscopic analysis. It counts as cell-based.
The subject of data set [8] is HeLa. The data set is described as follows: Induction of autophagy mediated Rosella/Halotag-fused EGFP (unknown origin) degradation expressed in human HeLa cells assessed as lysosomal degradation of EGFP-HT substrate at 1 uM incubated for 24 hrs by fluorescence microscopic analysis. Format: cell-based.
Data set [9] deals with MEF. The data set is described as follows: Induction of autophagy mediated Halotag-fused EGFP (unknown origin) degradation transiently expressed in Atg5-/- MEF cells assessed as reduction in EGFP-HT substrate level at 1 uM measured after 24 hrs by fluorescence microscopic analysis. Format: cell-based.
In data set [10] the test system is HeLa. Put plainly: Cytotoxicity against human HeLa cells expressing Halotag-fused EGFP assessed as reduction in cell survival rate at 0.001 to 100 uM. It counts as toxicity, cell-based. To be noted: dose 0.001-100 µM.
Data set [11] deals with MEF. The data set is described as follows: Induction of EGFP-tagged FKBP12 degradation in p62-/- MEF cells assessed as reduction in FKBP12 level incubated for 48 hrs by immunoblot analysis. Format: cell-based. To be noted: Mus musculus. For orientation: In western blotting, separated proteins are transferred to a membrane and probed.
For data set [12], the system named is HeLa. Put plainly: Effect on FKBP12 mRNA transcription level in human HeLa cells at 0.1 to 10 uM incubated for 48 hrs by RT-PCR analysis. It counts as functional, cell-based. To be noted: dose 0.1-10 µM.
For data set [13], the system named is HeLa. Put plainly: Induction of EGFP-tagged FKBP12 degradation in human HeLa cells assessed as reduction in FKBP12 protein level at 1 to 10 uM incubated for 48 hrs in presence of 100 uM 8H-FBnG by immunoblot analysis. Format: cell-based. To be noted: dose 1-10 µM.
Data set [14] concerns HeLa. Put plainly: Induction of EGFP-tagged FKBP12 degradation in human HeLa cells assessed as reduction in FKBP12 protein level at 0.001 to 10 uM incubated for 48 hrs in presence of bafilomycin Al treated for last 12 hrs by immunoblot analysis. To be noted: dose 0.001-10 µM. Format: cell-based.
Data set [15] deals with HeLa. Put plainly: Induction of EGFP-tagged FKBP12 degradation in human HeLa cells assessed as protein knockdown at 1 uM incubated for 48 hrs by immunoblot analysis. Format: cell-based.
The test system of data set [16] is MEF. The data set is described as follows: Induction of EGFP-tagged FKBP12 degradation in […] MEF cells assessed as reduction in FKBP12 level incubated for 48 hrs by immunoblot analysis. It counts as cell-based. To be noted: Mus musculus.

Consider `Fc1ccc(Cn2ccnc2-c2cnn(CCOCCOCCOCCOCCOCCCCCCCl)c2)cc1`, for which the result in [1] was inactive.
In the case of `Nc1nc2c(nc(-c3ccc(OCCOCCOCCOCCOCCOCCCCCCCl)cc3)n2Cc2ccc(F)cc2)c(=O)[nH]1`, the result in data set [2] was Active.
Still for that read-out and setting: as for `Nc1nc2c(nc(-c3cccc(OCCOCCOCCOCCOCCOCCCCCCCl)c3)n2Cc2ccc(F)cc2)c(=O)[nH]1`, the entry is “Active”.
Regarding `Nc1nc2c(nc(-c3cn(CCOCCOCCOCCOCCOCCCCCCCl)nn3)n2Cc2ccc(F)cc2)c(=O)[nH]1`, the outcome in [2] was Active.
The same measure, in the same setting: as for `COc1ccc(Cn2c(SCC(NC(C)=O)C(=O)NCCOCCOCCOCCOCCOCCCCCCCl)nc3c(=O)[nH]c(N)nc32)cc1` (single isomer, unassigned), the entry is “inactive”.
In the case of `CC(=O)NC(CSc1nc2c(=O)[nH]c(N)nc2n1Cc1ccc(Cl)cc1)C(=O)NCCOCCOCCOCCOCCOCCCCCCCl` (single isomer, unassigned), the Activity entry in data set [3] is “Dose-Dependent Effect”.
With `Fc1ccc(Cn2c(-c3cnn(CCOCCOCCOCCOCCOCCCCCCCl)c3)nc3ccccc32)cc1`, the outcome in data set [1] was inactive.
Regarding `CC(=O)NC(CSc1nc2c(=O)[nH]c(N)nc2n1Cc1ccc(S(C)(=O)=O)cc1)C(=O)NCCOCCOCCOCCOCCOCCCCCCCl` (single isomer, unassigned), the outcome in data set [2] was inactive.
Take `Nc1nc2c(nc(-c3cnn(CCOCCOCCOCCOCCOCCCCCCCl)c3)n2Cc2ccc(F)cc2)c(=O)[nH]1`: the result in [2], in data set [4], in [5], in [7] and in [8] was Active. Also, the outcome in data set [6] and in data set [9] was inactive. Also, the Activity result in data set [10] was “Non-Toxic”.
Consider `CC(=O)NC(CSc1nc2c(=O)[nH]c(N)nc2n1Cc1cccc(F)c1)C(=O)NCCOCCOCCOCCOCCOCCCCCCCl` (single isomer, unassigned), for which the outcome in data set [2] was inactive.
Consider `CCC(C)(C)C(=O)C(=O)N1CCCC[C@H]1C(=O)O[C@H](CCc1ccc(OC)c(OC)c1)c1cccc(NC(=O)CCC(=O)NCCCOCCOCCOCCCn2cc(-c3nc4c(=O)[nH]c(N)nc4n3Cc3ccc(F)cc3)cn2)c1`, for which the outcome in data set [11], in [12], in data set [13], in data set [14] and in [16] was inactive. For the same compound, the result in data set [15] was Active.
For the compound `CC(=O)NC(CSc1nc2c(=O)[nH]c(N)nc2n1Cc1ccccc1F)C(=O)NCCOCCOCCOCCOCCOCCCCCCCl` (single isomer, unassigned), the result in data set [2] was inactive.
In the case of `CC(=O)NC(CSc1nc2c(=O)[nH]c(N)nc2n1Cc1ccc(C)cc1)C(=O)NCCOCCOCCOCCOCCOCCCCCCCl` (single isomer, unassigned), the result in [2] was inactive.
With `CC(=O)NC(CSc1nc2c(=O)[nH]c(N)nc2n1Cc1ccc(C#N)cc1)C(=O)NCCOCCOCCOCCOCCOCCCCCCCl` (single isomer, unassigned), the result in data set [2] was inactive.
For `Nc1ncnc2c1nc(-c1cnn(CCOCCOCCOCCOCCOCCCCCCCl)c1)n2Cc1ccc(F)cc1`, the outcome in [1] was inactive.
In the case of `Cn1c(=O)c2nc(-c3cnn(CCOCCOCCOCCOCCOCCCCCCCl)c3)n(Cc3ccc(F)cc3)c2n(C)c1=O`, the result in data set [1] was inactive.
As to `CC(=O)NC(CSc1nc2c(=O)[nH]c(N)nc2n1Cc1ccccc1)C(=O)NCCOCCOCCOCCOCCOCCCCCCCl` (single isomer, unassigned), in data set [2], the outcome was inactive.
For the compound `O=c1[nH]cnc2c1nc(-c1cnn(CCOCCOCCOCCOCCOCCCCCCCl)c1)n2Cc1ccc(F)cc1`, in data set [1], the outcome was inactive.

(Values after ChEMBL document CHEMBL5321274, “Second-Generation AUTACs for Targeted Autophagic Degradation” (J Med Chem, 2023).)
